We go through eleven compounds from ChEMBL document CHEMBL1201862, “PubChem BioAssay data set” (2004).

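A five-concentration, 48-hour dose response in 96-well plates underlies each endpoint, interpolated linearly between surrounding concentrations. The concentration for 50% growth inhibition is given as GI50.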 Calls of active or inactive are those of the source. No stated cut-off is given here; in the data, active = GI50 up to about 1.1 µM and inactive = higher.

Test systems include CCRF-CEM; OVCAR-3; SF-268; COLO 205; Hs-578T; SF-539; UO-31; HT-29; M14; MCF7; SN12C; MDA-MB-435; SW-620; OVCAR-5; RXF 393; SNB-75; ACHN; U-251; TK-10; HCC 2998.
What all share (test): NCI anticancer screen, dose series, 48 h

For the compound `CC(Nc1cccc(Cl)c1)c1ccncc1` (stereo not drawn), the GI50 in the test with CCRF-CEM was > 100 µM (inactive); in the test on OVCAR-3, 49.4 µM (inactive); in the test on SF-268 it was > 100 µM (inactive); in the test on COLO 205, > 100 µM (inactive); with Hs-578T, > 100 µM (inactive); with SF-539, > 100 µM (inactive). Besides, the GI50 in the test on UO-31 is 7.21 µM (inactive); in the test on HT-29 it was > 100 µM (inactive); in the test with M14 it was > 100 µM (inactive); with MCF7, > 100 µM (inactive); with SN12C, > 100 µM (inactive); with MDA-MB-435 it was 56.2 µM (inactive). The GI50 was > 100 µM (inactive) in the test on SW-620; 51.5 µM (inactive) in the test with OVCAR-5; 42.8 µM (inactive) with RXF 393; > 100 µM (inactive) in the test with SNB-75; 87.1 µM (inactive) in the test on ACHN; > 100 µM (inactive) in the test with U-251. The GI50 in the test with TK-10 is > 100 µM (inactive).
For `CSc1c(C#N)c(O)n(-c2ccc(C)cc2)c(=O)c1C#N`, the GI50 in the test with HCC 2998, with OVCAR-3, in the test with SF-268, in the test on COLO 205, with Hs-578T and with SF-539 was > 100 µM (inactive) in each case. Further, the GI50 with UO-31, with HT-29, in the test on M14, with MCF7, in the test with SN12C and in the test with MDA-MB-435 was > 100 µM (inactive) each time. The GI50 in the test on SW-620, in the test on OVCAR-5, in the test on RXF 393, with SNB-75, in the test on U-251 and in the test with TK-10 was > 100 µM (inactive) throughout.
As for `COC1C(=O)CCC2(CO2)C1(O)C1(C)OC1CC=C(C)C` (stereo not drawn), the GI50 in the test with HCC 2998 was 17.7 µM (inactive); in the test on OVCAR-3 it was 25.2 µM (inactive); in the test on SF-268, 33.5 µM (inactive); in the test with COLO 205, 16.6 µM (inactive); in the test with Hs-578T, 22.1 µM (inactive); in the test with UO-31, 28.4 µM (inactive). In addition, the GI50 in the test on HT-29 is 23.1 µM (inactive); in the test with M14 it was 11.1 µM (inactive); with MCF7, 11.8 µM (inactive); with SN12C, > 100 µM (inactive); in the test with MDA-MB-435, 24.5 µM (inactive); in the test on SW-620, 18.4 µM (inactive). In addition, the GI50 in the test on OVCAR-5 is 51.5 µM (inactive); with RXF 393, 22.9 µM (inactive); in the test with SNB-75, 69.8 µM (inactive); in the test with ACHN, 17.6 µM (inactive); in the test on U-251 it was 13.9 µM (inactive); in the test on TK-10, 22.9 µM (inactive).
`CC1(C)C=Cc2c(cc3oc4ccc5c(c4c(=O)c3c2O)C=CC(C)(C)O5)O1`: the GI50 with CCRF-CEM, with HCC 2998, in the test with OVCAR-3, with SF-268, in the test on COLO 205 and in the test on Hs-578T was > 100 µM (inactive) throughout. Besides, the GI50 in the test with SF-539, with UO-31, with HT-29, in the test on M14, in the test with MCF7 and with SN12C was > 100 µM (inactive) throughout. Besides, the GI50 in the test on MDA-MB-435, in the test with SW-620, in the test on OVCAR-5, in the test on RXF 393, with ACHN and in the test with U-251 was > 100 µM (inactive) throughout. The GI50 in the test with TK-10 is > 100 µM (inactive).
For the compound `COc1ccc2c(c1)CN1C(=N2)CSC1c1cccc(Br)c1` (stereo not drawn), the GI50 in the test on HCC 2998 is 14.8 µM (inactive); in the test with SF-268, 52.8 µM (inactive); in the test with COLO 205, 31.7 µM (inactive); in the test with Hs-578T, 53.6 µM (inactive); in the test on SF-539, 15.4 µM (inactive); in the test with UO-31, 17.5 µM (inactive). Further, the GI50 was 20 µM (inactive) with HT-29; 52.1 µM (inactive) with M14; 10.6 µM (inactive) with MCF7; 20.4 µM (inactive) in the test on SN12C; 6.15 µM (inactive) in the test on MDA-MB-435; 15.8 µM (inactive) in the test on SW-620. The GI50 in the test on OVCAR-5 is > 100 µM (inactive); with RXF 393 it was 19.9 µM (inactive); with SNB-75 it was 14.9 µM (inactive); in the test on ACHN, 19.8 µM (inactive); with U-251 it was 26.5 µM (inactive); in the test with TK-10, 59.8 µM (inactive).
`NC1=NCC(CN2CCCCC2)O1` (stereo not drawn): the GI50 in the test with CCRF-CEM, in the test with OVCAR-3, with SF-268, in the test with COLO 205, with Hs-578T and in the test with SF-539 was > 100 µM (inactive) throughout. The GI50 in the test with UO-31, in the test with HT-29, in the test on M14, with MCF7, with SN12C and in the test on MDA-MB-435 was > 100 µM (inactive) in each case. Moreover, the GI50 with SW-620, in the test on RXF 393, in the test on SNB-75, in the test on ACHN, with U-251 and in the test on TK-10 was > 100 µM (inactive) in each case.
For the compound `COC(=O)c1c2c(cc3c1CC1(C3)Cc3cc4c(c(C(=O)OC)c3C1)CCC4)CCC2`, the GI50 with CCRF-CEM is 98.9 µM (inactive); in the test on HCC 2998 it was > 100 µM (inactive); in the test on OVCAR-3 it was > 100 µM (inactive); with COLO 205, > 100 µM (inactive); with Hs-578T it was 65.9 µM (inactive); with SF-539, > 100 µM (inactive). Besides, the GI50 is 13.6 µM (inactive) in the test on UO-31; > 100 µM (inactive) in the test on HT-29; > 100 µM (inactive) with M14; > 100 µM (inactive) with MCF7; > 100 µM (inactive) in the test with SN12C; > 100 µM (inactive) in the test on MDA-MB-435. Further, the GI50 in the test with OVCAR-5, in the test with RXF 393, with ACHN, in the test with U-251 and in the test on TK-10 was > 100 µM (inactive) throughout.
For `C/C(=N\Nc1nc2ccccc2[nH]1)c1ccc2ccccc2n1`, the GI50 in the test on CCRF-CEM was 1.05 µM (active); with OVCAR-3 it was 0.592 µM (active); with SF-268 it was 1.97 µM (inactive); with COLO 205 it was 3.15 µM (inactive); with Hs-578T, 10.8 µM (inactive); in the test with SF-539 it was 3.27 µM (inactive). The GI50 was 1.06 µM (active) in the test with UO-31; 0.948 µM (active) with HT-29; 1.24 µM (inactive) with M14; 2.17 µM (inactive) with MCF7; 1.52 µM (inactive) with SN12C; 4.29 µM (inactive) in the test with MDA-MB-435. For the same compound, the GI50 in the test on SW-620 was 3.58 µM (inactive); with OVCAR-5, 2.25 µM (inactive); in the test with RXF 393 it was 2.73 µM (inactive); in the test on SNB-75, 2.19 µM (inactive); in the test with ACHN it was 3.15 µM (inactive); with U-251, 1.81 µM (inactive). In the test on TK-10, the GI50 is 3.04 µM (inactive).
For `N#C/C(=C/C=C/c1ccco1)C(N)=O`, the GI50 in the test on HCC 2998, in the test on OVCAR-3, in the test on SF-268, in the test with COLO 205, in the test with Hs-578T and in the test with SF-539 was > 10 µM (inactive) each time. Moreover, the GI50 in the test on UO-31, in the test on HT-29, in the test with M14, with MCF7, with SN12C and with MDA-MB-435 was > 10 µM (inactive) in each case. Besides, the GI50 in the test with SW-620, in the test with OVCAR-5, in the test with RXF 393, in the test with SNB-75, in the test on ACHN and in the test on U-251 was > 10 µM (inactive) in each case. In the test with TK-10, the GI50 is > 10 µM (inactive).
For `CCCSc1cc(Cl)c(C)cc1S(=O)(=O)n1ccnc1OCCCN(C)C`, the GI50 in the test with CCRF-CEM, in the test on HCC 2998, with OVCAR-3, with SF-268, with COLO 205 and in the test on Hs-578T was > 100 µM (inactive) throughout. Also, the GI50 in the test on SF-539, with UO-31, in the test on HT-29, with M14, in the test on MCF7 and with SN12C was > 100 µM (inactive) each time. For the same compound, the GI50 in the test with MDA-MB-435, in the test with SW-620, in the test on OVCAR-5, with RXF 393, in the test with ACHN and in the test with U-251 was > 100 µM (inactive) each time. In addition, the GI50 in the test with TK-10 was > 100 µM (inactive).
In the case of `CO/C(=C/C(=O)C(Cl)(Cl)Cl)CC/C(=C\C(=O)C(Cl)(Cl)Cl)OC`, the GI50 was 24.3 µM (inactive) in the test with CCRF-CEM; 26.8 µM (inactive) in the test with OVCAR-3; 26.1 µM (inactive) in the test on SF-268; 40.7 µM (inactive) with COLO 205; 35.9 µM (inactive) in the test with Hs-578T; 23.6 µM (inactive) with SF-539. Moreover, the GI50 was 20.5 µM (inactive) in the test on UO-31; 25 µM (inactive) with HT-29; 28.2 µM (inactive) in the test with M14; 24.2 µM (inactive) in the test with MCF7; 23.2 µM (inactive) with SN12C; 19.8 µM (inactive) with MDA-MB-435. Besides, the GI50 in the test on SW-620 is 53 µM (inactive); in the test on OVCAR-5 it was 27.8 µM (inactive); in the test with RXF 393, 17.5 µM (inactive); with SNB-75, 40.6 µM (inactive); in the test with ACHN, 24.5 µM (inactive); in the test on U-251, 22.8 µM (inactive). In addition, in the test with TK-10, the GI50 is 30.8 µM (inactive).
